“Also recorded” adds a separate entry of the source.
Tests used:
[1] = ABTS free radical scavenging assay; conditions: triplicate (n = 3); 745 nm, 15 min
Experimental: The antioxidant potential of the synthesized compounds were also determined using ABTS free radical following a reported standard protocol. ABTS (7 mM) and K2S2O8 (2.45 mM) were mixed (in methanol) and put in the dark for 24 h for free radicals’ formation, which was then used as stock solution. The absorbance of 3 mL from the stock ABTS was adjusted to 0.75 at 745 nm, which was considered a control. About 300 μl of each of the serial dilutions (0.1–3.5 μM) of SB1– SB6 and 3 mL of stock ABTS were mixed and incubated for 15 min at 25 °C, and their absorbance was measured at 745 nm. Ascorbic acid was used as a control. The scavenging activity was calculated by Equation (1).

[2] = DPPH free radical scavenging assay; conditions: triplicate (n = 3); 517 nm, 15 min
Experimental: A slightly modified DPPH assay as described by Brand William was followed. Initially, the absorbance of 3 mL from stock DPPH (20 mg/100 mL of methanol) was adjusted to 0.75 at 517 nm. The DPPH stock solution was covered and kept in the dark overnight to generate free radicals. About 2 mL of each dilution of different ranges (0.1–3.5 μM) was prepared from SB1– SB6 stock (5 mg/5 mL of methanol) were mixed with 2 mL of pre-incubated DPPH stock solution and incubated for 15 min at room temperature. Ascorbic acid was used as a standard. The absorbance of the reaction mixtures was recorded at 517 nm and the % inhibition was calculated by Equation (1):[1] %inhibition=A−B/A×100
where A = absorbance of pure DPPH in oxidized form, B = absorbance of the sample, which
Was measured after 15 min of reaction with DPPH.

[3] = system: scopolamine-induced memory impairment in mice; experiment: Novel object recognition test (NORT), scopolamine-induced amnesia; format: in vivo, Albino mice; conditions: for effect on time spent with the new object N (exploration time) in NOR test: 50 and 100 mg/kg b.w (galantamine: standard), compared with scopolamine group; for effect on discrimination index in NOR test: 50 mg/kg and 100 mg/kg b.w, compared with scopolamine group / galantamine; for effect on latency time to discover familiar object (F) in NOR test: 50 and 100 mg/kg b.w, compared with scopolamine-injected group
Experimental: (§1) Albino mice (20–23 g b. w.) were brought from National Institute of Health, Islamabad, Pakistan, and the mice were retained in animal house at University of Malakand at Department of Pharmacy for acclimation. Normal pellet diet and water were provided to all the animals and were kept for 12 h of light-dark cycle under normal laboratory conditions (temperature in a range of 25 ± 2 °C, humidity of 56–66%). All protocols employed were approved from the Ethical Committee vide notification Pharm/EC-QRE/10–31/25 as per approved “Animal Bye-Laws 2008, Scientific Procedures Issue-I of the Malakand University” and the UK animal scientific procedure act (1986).
(§2) After acclimatization, the animals were grouped into different groups consisting of 6 animals each. […] It also can induce amyloid β deposition, oxidative stress, synaptic dysfunction, and learning/memory impairment in experimental animals. […] The treatment was carried out continuously for 7 days and after treatment schedule, the animals were subjected to behavioural study using Y-maze and NORT.
NORT was used to assess the effect of vanillin derivatives on memory in mice model. The apparatus employed in this test measures 40 cm wide, 40 cm long, and 66 cm tall. NORT entails a two-day habituation period, followed by a two-day training session and finally a testing or experimental period. During habituation, an empty box was used, two identical objects were placed in two corners of the box during training, and one unique object was replaced during testing as shown in Fig. 3. To test long-term memory in mice, a five-day washout period was provided before the NORT. The time spent in each phase was manually documented using a stopwatch.
Fig. 3 Procedures for novel object recognition (NORT). The three phases of the test are shown. In NORT, object identity is changed between training and test; object location is remained unchanged.

[4] = system: scopolamine-induced memory impairment in mice; experiment: Y-maze spontaneous alternation, scopolamine-induced amnesia; format: in vivo, Albino mice; conditions: for effect on spontaneous alternation / short-term memory retention in Y-Maze (significance): 50 and 100 mg/kg b.w, compared with scopolamine-injected group
Experimental: as §1
as §2, with “animals. Group II received scopolamine along with galantamine as standard.” for “animals.”
To assess the short-term memory (amnesic) effect, the exploratory activity of mice were investigated using Y- maze apparatus. At a time, a single mouse was placed at Y-shaped maize and allowed to move freely for 5-min session and alterations were recorded as shown in Fig. 2. The percentage alternations were calculated as per reported protocol and mathematically as given in equation (2).[2] %Alternation=Spontaneousalternation/Totalnumberofarmentries−2×100
Fig. 2 (A). Schematic drawings of the Y-maze and the experimental procedures. The sample trial and test trials were conducted for 5 min at a 30 min interval. (B) The Y-Maze test diagrammatic figure. (a) The mouse was positioned in the middle of the fixed arm and faced the maze's centre during the test. (b) A mouse was considered to have entered an arm when all four of its paws passed the threshold inside the arm and the mouse's snout was pointed in the direction of the end of the arm. (C). Alternations consist of single, uninterrupted entries into each arm of the y-maze. There are three steps involved in each alternation. The steps of alternation are shown in (a) the first entrance into the arm 1; (b) the second entry into the arm 3; and (c) the third entry into the arm 2 [41, 42].

[5] = target: T1, butyrylcholinesterase (EC 3.1.1.8) (Homo sapiens, UniProt P06276); experiment: In-vitro BChE inhibitory assay (Ellman's protocol); format: biochemical; conditions: triplicate (n = 3); 405 nm
T1 construct: purchased local market (no vendor named)
T1 sequence (P06276 29-602): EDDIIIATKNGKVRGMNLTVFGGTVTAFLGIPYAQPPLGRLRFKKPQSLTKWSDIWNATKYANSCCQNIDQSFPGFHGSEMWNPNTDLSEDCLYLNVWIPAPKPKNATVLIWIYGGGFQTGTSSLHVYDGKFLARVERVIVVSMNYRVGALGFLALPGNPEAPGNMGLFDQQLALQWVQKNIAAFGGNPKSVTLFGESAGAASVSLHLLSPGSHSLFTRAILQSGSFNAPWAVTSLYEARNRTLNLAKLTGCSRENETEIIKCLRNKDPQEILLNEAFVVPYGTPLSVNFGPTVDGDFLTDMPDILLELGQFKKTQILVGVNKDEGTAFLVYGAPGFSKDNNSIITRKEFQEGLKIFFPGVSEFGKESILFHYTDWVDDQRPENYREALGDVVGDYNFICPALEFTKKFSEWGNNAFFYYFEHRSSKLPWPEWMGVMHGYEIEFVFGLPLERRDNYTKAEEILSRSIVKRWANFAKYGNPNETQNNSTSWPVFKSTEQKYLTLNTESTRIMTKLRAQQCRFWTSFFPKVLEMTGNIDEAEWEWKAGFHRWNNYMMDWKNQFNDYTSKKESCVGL
Experimental: (§3) To evaluate the therapeutic effectiveness of the compounds as inhibitors of cholinesterases, the reported procedures were followed (Elman's protocol). Enzymes acetylcholinesterase (EC 3.1.1.7) and butyrylcholinesterase (EC 3.1.1.8) were purchased from local market.
The absorbance at 405 nm was measured and the data were analysed in triplicate.

[6] = target: T2, acetylcholinesterase (EC 3.1.1.7) (Homo sapiens, UniProt P22303); experiment: biochemical; conditions: triplicate (n = 3); 405 nm; read-out: IC50 (μM) AChE
T2 construct: purchased local market (no vendor named)
T2 sequence (P22303 32-614, species assumed): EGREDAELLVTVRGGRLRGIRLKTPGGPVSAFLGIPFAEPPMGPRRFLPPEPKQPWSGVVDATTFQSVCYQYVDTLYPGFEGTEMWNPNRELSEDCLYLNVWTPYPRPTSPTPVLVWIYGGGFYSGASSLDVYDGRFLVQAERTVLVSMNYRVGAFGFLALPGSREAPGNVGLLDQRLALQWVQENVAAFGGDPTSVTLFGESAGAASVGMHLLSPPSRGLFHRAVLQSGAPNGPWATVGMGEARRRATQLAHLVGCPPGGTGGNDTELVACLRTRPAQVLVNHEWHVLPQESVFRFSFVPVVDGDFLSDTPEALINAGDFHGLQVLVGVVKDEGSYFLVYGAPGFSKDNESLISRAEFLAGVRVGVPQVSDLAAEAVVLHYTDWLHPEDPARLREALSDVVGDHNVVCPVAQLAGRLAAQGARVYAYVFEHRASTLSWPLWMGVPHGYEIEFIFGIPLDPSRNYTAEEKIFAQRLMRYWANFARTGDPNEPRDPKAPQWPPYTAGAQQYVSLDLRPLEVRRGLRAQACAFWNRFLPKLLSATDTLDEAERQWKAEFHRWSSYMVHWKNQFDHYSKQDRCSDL
Source text: as §3
The acetylcholinesterase inhibition assay is based on the principle of the hydrolytic breakdown of substrate; acetylthiocholine iodide by acetylcholinesterase enzyme. The AChE acts on acetylthiocholine to thiocholine which then react with DTNB that's leads towards the formations of anion (5-thio-2-nitrobenzoate) a yellow colour product which is then assessed via UV visible spectrophotometer at 405 nm.
The AChE, Ellman's Reagent (DTNB) and acetylthiocholine iodide (ATChI, substrate), and the test compound solutions were made in different concentrations ranges from (0.01–1.0 μM) were incubated per detail given in the Ellman's protocol. […] IC50 of each Schiff bases were calculated using Microsoft Excel 2013 software.

[7] = 50 mg/kg b.w (lower test dose), 7 days, with scopolamine 2 mg/kg i.p., mean ± SEM, n = 6

SMILES	IC50 [1]	IC50 [2]	effect on time spent with the new object N (exploration time) in NOR test [3]	spontaneous alternation rate in Y-Maze ([4]; standard group: galantamine with scopolamine, P < 0.001 vs scopolamine-treated group)	IC50 [5]	IC50 [6]	effect on discrimination index in NOR test [3]	effect on latency time to discover familiar object (F) in NOR test [3]	spontaneous alternation rate in Y-Maze [4, 7]	effect on spontaneous alternation / short-term memory retention in Y-Maze (significance) [4]	changes in the memory and cognition of mice (NORT) ([3]; mouse, in vivo)	spontaneous alternation rate in Y-Maze ([4]; scopolamine-treated group, 2 mg/kg i.p. alone, n = 6)
O=C1O[C@H]([C@@H](O)CO)C(O)=C1O [Ascorbic acid, reference compound]	0.073 µM	0.074 µM										
COc1ccc2c3c1O[C@H]1C[C@@H](O)C=C[C@@]31CCN(C)C2 [Galantamine, reference compound]			significant increase	more than 80%								
COc1cc(/C=N/c2ccccc2C(F)(F)F)ccc1O [SB-1, (E)-2-methoxy-4-(((2-(trifluoromethyl)phenyl)imino)methyl)phenol]	0.208 µM	0.588 µM	significant increase		0.265 µM	0.078 µM	most prominent activity; also recorded: more pronounced as compared to standard drug	decreased the latency time significantly	69.44 ± 1%	significantly improved		
COc1ccc(/C=N/c2ccccc2C(F)(F)F)cc1O [SB-2, (E)-2-methoxy-5-(((2-(trifluoromethyl)phenyl)imino)methyl)phenol]	0.401 µM	0.447 µM	insignificant activity		0.188 µM	0.61 µM	insignificant activity	insignificant		no significant effect	did not cause any changes	
Oc1ccc(/C=N/c2ccccc2C(F)(F)F)cc1 [SB-3, (E)-4-(((2-(trifluoromethyl)phenyl)imino)methyl)phenol]	0.118 µM	0.305 µM	significant increase		0.057 µM	0.157 µM	most prominent activity	decreased the latency time significantly	68.92 ± 1%	significantly improved		
Cc1ccc(/N=C/c2ccc(O)cc2)c(Cl)c1 [SB-4, (E)-4-(((2-chloro-4-methylphenyl)imino)methyl)phenol]	0.969 µM	0.804 µM	significant increase		0.367 µM	0.108 µM	most prominent activity	decreased the latency time significantly				
Cc1ccc(/N=C/c2ccccc2Br)c(Cl)c1 [SB-5, (E)-N-(2-bromobenzylidene)-2-chloro-4-methylaniline]	0.19 µM	0.72 µM	insignificant activity		0.186 µM	0.442 µM	insignificant activity	significant decrease				
Cc1ccc(/N=C/c2ccc[nH]2)c(Cl)c1 [SB-6, (E)-N-((1H-pyrrol-2-yl)methylene)-2-chloro-4-methylaniline]	3.3 µM	2.8 µM	slight activity		0.117 µM			decreased the latency time significantly				
CN1[C@@H]2C[C@@H](OC(=O)[C@H](CO)c3ccccc3)C[C@H]1[C@@H]1O[C@@H]12 [Scopolamine]												38.16%

Reference: article PMC10901097, “Vanillin derivatives as antiamnesic agents in scopolamine-induced memory impairment in mice” (Heliyon, 2024)
